Reference: patent US20050282743A1, “Molecular interactions in cells” (Arbor Vita Corporation, priority 2001, published 2005)
Blank lines part the entries; values can stand above or below the compound they belong to. Ends that are not written are not given here. Peptide text beside a SMILES is read from it. * marks the point of attachment. Biotin = O=C1N[C@H]2[C@H](CS[C@H]2CCCCC(=O)*)N1

Key:
Assay in all cases: G' assay (10 uM PL peptide), results of TABLE 7 and TABLE 12
Format in all cases: binding
[1] = target: T1, PDZ protein (GST-PDZ fusion) (Homo sapiens, UniProt Q14160)
T1 construct: made in house; host or cells: E. coli (DH5alpha, BL21 or JM109)
How it was run: (§1)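 Same steps as the G-zero format, apart from a peptide concentration of 10 uM in place of 20 uM in step 2. Amino-terminally biotinylated PL peptides bind GST-PDZ fusions, and retained peptide is quantified by 450 nm absorbance.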

[2] = target: T2, PDZ protein (GST-PDZ fusion) (Homo sapiens, UniProt Q5TCQ9)
T2 construct: made in house; host or cells: E. coli (DH5alpha, BL21 or JM109)
T2 sequence (Q5TCQ9 1-1481): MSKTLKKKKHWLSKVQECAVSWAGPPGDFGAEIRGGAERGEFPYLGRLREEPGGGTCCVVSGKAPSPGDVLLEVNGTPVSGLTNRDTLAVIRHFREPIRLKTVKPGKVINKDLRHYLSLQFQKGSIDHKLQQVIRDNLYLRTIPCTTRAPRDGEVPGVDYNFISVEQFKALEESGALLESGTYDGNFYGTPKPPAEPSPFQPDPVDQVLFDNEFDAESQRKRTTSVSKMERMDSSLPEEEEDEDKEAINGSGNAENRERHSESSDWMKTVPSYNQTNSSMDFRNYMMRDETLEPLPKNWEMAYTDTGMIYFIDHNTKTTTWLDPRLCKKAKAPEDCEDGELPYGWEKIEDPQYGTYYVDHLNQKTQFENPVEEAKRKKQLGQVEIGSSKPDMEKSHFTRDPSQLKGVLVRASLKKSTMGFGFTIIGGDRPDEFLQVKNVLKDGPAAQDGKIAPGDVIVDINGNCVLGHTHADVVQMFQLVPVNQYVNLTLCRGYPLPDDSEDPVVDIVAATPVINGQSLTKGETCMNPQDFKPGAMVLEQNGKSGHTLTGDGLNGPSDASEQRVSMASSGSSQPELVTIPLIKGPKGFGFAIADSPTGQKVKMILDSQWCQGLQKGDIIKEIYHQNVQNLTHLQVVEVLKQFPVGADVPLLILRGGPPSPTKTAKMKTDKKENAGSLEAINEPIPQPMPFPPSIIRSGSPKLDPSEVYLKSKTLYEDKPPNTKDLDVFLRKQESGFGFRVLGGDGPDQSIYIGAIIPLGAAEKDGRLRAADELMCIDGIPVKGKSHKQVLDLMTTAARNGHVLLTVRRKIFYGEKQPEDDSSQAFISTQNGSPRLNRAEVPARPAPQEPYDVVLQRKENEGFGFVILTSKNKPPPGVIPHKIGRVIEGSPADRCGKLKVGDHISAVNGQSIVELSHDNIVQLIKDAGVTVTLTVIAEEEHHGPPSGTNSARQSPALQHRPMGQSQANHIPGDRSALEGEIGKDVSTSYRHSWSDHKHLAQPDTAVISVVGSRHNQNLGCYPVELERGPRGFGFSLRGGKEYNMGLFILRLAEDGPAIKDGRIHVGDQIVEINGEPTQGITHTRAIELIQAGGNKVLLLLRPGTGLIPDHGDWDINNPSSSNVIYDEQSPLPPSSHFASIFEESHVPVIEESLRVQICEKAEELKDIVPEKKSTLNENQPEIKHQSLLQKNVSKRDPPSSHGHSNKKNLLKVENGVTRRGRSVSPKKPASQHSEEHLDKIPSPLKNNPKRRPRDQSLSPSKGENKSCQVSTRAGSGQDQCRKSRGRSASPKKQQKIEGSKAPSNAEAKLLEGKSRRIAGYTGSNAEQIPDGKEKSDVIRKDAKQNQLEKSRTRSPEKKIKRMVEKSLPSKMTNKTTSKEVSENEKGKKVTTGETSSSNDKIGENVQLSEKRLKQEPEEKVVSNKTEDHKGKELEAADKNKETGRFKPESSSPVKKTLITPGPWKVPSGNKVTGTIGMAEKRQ
How it was run: as §1

[3] = target: T3, PDZ protein (GST-PDZ fusion) (Homo sapiens, UniProt O75970)
T3 construct: made in house; host or cells: E. coli (DH5alpha, BL21 or JM109)
T3 sequence (O75970 whole entry, the tested form may be a part): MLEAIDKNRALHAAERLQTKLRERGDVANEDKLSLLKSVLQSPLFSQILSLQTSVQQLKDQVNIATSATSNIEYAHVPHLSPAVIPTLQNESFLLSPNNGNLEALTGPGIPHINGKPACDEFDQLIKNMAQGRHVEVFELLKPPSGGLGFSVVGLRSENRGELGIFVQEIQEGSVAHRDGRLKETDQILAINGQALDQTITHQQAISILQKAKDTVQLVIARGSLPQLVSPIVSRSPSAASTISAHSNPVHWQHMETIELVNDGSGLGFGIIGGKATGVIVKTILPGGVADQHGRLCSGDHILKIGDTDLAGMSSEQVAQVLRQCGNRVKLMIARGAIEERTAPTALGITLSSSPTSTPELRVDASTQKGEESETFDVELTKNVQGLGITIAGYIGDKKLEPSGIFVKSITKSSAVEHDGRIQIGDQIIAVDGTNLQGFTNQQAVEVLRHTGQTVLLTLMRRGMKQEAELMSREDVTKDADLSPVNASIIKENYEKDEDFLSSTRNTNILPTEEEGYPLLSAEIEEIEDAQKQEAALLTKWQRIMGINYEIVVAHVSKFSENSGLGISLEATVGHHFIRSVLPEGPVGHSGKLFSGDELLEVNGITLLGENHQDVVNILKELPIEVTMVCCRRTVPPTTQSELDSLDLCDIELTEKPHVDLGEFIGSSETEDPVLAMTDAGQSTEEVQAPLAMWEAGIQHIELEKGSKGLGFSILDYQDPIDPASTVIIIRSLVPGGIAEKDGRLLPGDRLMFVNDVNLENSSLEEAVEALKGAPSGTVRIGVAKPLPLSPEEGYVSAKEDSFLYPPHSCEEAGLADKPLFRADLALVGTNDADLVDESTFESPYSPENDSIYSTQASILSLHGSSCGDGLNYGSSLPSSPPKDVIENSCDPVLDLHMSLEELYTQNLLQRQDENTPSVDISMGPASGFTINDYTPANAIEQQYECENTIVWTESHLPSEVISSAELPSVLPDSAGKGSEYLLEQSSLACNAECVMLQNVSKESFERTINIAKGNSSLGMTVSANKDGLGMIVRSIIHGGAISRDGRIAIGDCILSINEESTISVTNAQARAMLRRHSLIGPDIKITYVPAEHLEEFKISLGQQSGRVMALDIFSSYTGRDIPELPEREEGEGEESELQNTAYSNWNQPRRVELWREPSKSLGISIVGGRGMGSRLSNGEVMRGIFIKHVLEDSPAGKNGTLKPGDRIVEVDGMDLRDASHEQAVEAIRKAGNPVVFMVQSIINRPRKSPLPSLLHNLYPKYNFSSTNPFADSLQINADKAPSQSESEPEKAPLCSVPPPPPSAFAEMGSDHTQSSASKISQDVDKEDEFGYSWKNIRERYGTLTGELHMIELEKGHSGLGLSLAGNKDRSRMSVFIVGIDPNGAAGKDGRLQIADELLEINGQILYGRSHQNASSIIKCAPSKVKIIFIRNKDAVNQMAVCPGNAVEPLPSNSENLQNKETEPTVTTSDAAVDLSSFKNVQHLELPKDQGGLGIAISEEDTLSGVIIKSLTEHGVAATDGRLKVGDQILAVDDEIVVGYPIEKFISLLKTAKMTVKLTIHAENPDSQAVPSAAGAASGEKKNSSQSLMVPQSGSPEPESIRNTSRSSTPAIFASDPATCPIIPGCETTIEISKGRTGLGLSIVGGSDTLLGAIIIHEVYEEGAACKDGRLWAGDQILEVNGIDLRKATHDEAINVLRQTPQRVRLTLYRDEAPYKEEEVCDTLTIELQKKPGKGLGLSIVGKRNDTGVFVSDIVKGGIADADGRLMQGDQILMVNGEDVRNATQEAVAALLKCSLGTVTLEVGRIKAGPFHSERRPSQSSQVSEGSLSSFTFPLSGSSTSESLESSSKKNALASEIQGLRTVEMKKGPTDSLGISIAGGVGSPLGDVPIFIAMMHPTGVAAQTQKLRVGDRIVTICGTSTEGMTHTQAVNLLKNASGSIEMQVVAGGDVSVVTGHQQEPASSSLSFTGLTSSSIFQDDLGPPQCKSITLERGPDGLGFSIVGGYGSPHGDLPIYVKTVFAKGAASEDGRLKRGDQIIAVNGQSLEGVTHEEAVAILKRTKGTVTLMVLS
How it was run: as §1

[4] = target: T4, PDZ protein (GST-PDZ fusion) (Homo sapiens, UniProt P78352)
T4 construct: made in house; host or cells: E. coli (DH5alpha, BL21 or JM109)
T4 sequence (P78352 whole entry, the tested form may be a part): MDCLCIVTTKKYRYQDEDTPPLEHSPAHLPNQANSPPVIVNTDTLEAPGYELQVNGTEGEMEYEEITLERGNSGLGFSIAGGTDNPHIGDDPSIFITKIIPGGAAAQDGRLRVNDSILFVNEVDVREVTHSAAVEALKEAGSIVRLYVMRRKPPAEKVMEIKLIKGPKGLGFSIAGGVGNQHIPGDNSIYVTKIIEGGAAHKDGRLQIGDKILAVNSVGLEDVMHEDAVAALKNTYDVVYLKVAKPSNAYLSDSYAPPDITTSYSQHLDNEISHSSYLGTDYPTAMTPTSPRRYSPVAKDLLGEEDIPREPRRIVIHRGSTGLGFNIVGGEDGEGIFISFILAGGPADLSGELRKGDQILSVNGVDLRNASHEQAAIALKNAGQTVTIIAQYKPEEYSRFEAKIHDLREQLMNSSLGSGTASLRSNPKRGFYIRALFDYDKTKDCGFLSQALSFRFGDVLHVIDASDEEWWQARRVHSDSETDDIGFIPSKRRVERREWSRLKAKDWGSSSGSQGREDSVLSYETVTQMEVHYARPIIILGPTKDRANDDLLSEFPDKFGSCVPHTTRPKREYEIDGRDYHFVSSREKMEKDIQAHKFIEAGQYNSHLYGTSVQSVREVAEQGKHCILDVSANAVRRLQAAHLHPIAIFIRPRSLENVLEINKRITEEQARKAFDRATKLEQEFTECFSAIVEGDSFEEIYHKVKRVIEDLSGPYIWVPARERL
How it was run: as §1

[5] = target: T5, PDZ protein (GST-PDZ fusion) (Homo sapiens, UniProt Q6P0Q8)
T5 construct: made in house; host or cells: E. coli (DH5alpha, BL21 or JM109)
T5 sequence (Q6P0Q8 whole entry, the tested form may be a part): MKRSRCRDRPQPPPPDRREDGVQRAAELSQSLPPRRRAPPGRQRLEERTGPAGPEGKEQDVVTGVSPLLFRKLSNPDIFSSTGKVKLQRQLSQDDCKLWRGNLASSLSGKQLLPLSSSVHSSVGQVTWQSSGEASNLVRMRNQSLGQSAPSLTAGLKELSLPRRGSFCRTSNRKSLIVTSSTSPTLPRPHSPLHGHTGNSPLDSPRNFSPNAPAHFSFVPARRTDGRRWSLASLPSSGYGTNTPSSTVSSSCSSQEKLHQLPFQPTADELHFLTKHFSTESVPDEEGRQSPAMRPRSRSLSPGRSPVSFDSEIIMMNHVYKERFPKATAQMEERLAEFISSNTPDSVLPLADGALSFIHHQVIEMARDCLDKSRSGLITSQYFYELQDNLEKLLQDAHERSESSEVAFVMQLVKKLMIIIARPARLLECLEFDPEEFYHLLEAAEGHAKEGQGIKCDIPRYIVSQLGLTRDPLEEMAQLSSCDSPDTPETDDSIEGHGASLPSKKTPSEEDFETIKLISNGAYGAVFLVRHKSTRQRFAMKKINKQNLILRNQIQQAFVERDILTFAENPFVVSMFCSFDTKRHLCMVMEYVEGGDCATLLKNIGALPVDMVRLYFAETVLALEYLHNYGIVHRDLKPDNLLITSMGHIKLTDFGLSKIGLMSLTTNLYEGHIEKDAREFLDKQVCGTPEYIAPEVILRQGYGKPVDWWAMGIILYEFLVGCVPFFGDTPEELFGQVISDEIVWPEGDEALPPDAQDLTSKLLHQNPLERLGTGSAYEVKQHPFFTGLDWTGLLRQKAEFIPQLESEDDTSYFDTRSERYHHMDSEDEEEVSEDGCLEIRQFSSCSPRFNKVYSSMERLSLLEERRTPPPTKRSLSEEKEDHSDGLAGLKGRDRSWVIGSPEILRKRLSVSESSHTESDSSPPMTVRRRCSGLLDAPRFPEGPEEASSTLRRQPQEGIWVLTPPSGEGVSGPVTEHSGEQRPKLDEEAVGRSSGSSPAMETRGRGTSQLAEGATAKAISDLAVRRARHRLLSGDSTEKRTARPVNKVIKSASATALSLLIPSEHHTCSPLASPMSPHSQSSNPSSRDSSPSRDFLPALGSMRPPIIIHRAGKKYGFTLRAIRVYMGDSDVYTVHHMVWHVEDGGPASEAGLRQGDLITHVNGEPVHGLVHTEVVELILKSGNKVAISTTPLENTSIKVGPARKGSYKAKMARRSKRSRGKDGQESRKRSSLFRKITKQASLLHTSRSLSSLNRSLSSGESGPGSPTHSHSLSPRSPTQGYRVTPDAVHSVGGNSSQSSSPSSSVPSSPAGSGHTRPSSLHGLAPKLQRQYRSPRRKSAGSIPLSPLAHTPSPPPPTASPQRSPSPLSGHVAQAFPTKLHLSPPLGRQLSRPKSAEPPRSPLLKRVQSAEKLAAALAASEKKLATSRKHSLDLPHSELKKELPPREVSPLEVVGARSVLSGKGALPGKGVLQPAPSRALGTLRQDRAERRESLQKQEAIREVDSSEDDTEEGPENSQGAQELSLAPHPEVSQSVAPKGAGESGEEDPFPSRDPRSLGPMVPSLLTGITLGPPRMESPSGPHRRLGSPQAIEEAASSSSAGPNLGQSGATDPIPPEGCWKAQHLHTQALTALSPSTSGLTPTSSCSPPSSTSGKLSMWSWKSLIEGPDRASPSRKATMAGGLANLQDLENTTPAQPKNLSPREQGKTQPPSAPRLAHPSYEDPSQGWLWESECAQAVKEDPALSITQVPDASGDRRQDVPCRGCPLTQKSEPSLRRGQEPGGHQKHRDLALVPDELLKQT
How it was run: as §1

[6] = target: T6, PDZ protein (GST-PDZ fusion) (Homo sapiens, UniProt Q12923)
T6 construct: made in house; host or cells: E. coli (DH5alpha, BL21 or JM109)
How it was run: as §1

[7] = target: T7, PDZ protein (GST-PDZ fusion) (Homo sapiens, UniProt Q8NI35); conditions: PDZ INADL
T7 construct: made in house; host or cells: E. coli (DH5alpha, BL21 or JM109)
How it was run: as §1

Classification ([1]; PDZ KIAA0147, PDZ Domain 1): 1 (A450 nm 0-1)
Classification ([2]; PDZ KIAA1634, PDZ Domain 5): 1 (A450 nm 0-1)
Compound: QATSRNGHSARQHVVADTEL (Biotin-QATSRNGHSARQHVVADTEL) [CD34]

Compound: CC(C)C[C@H](NC(=O)[C@H](C)NC(=O)[C@@H](NC(=O)[C@H](CCC(=O)O)NC(=O)[C@H](CCCNC(=N)N)NC(=O)[C@H](CCCNC(=N)N)NC(=O)CNC(=O)[C@H](CCC(N)=O)NC(=O)[C@H](CC(C)C)NC(=O)[C@H](CCCNC(=N)N)NC(=O)CNC(=O)CNC(=O)[C@H](CCCNC(=N)N)NC(=O)[C@H](C)NC(=O)[C@H](CO)NC(=O)[C@H](CCCNC(=N)N)NC(=O)CNC(=O)CNC(=O)[C@H](C)NC(=O)[C@H](C)NC(=O)CCCC[C@@H]1SC[C@@H]2NC(=O)N[C@@H]21)[C@@H](C)O)C(=O)O [HPV E6 33 (modified)] (Biotin-AAGGRSARGGRLQGRRETAL-OH; C-terminus assumed)
Classification ([3]; PDZ MUPP-1, PDZ Domain 13): 2 (A450 nm 1-2)
Classification ([4]; PDZ PSD95, PDZ Domain 1): 2 (A450 nm 1-2)
Classification ([4]; PDZ PSD95, PDZ Domain 1, 2, 3): 5 (A450 nm of 4 more than 2× repeated)
Classification ([4]; PDZ PSD95, PDZ Domain 3): 5 (A450 nm of 4 more than 2× repeated)
Classification ([1]; PDZ KIAA0147, PDZ Domain 1): 5 (A450 nm of 4 more than 2× repeated)
Classification ([1]; PDZ KIAA0147, PDZ Domain 3): 2 (A450 nm 1-2)
Classification ([2]; PDZ KIAA1634, PDZ Domain 1): 5 (A450 nm of 4 more than 2× repeated)
Classification ([5]; PDZ KIAA0807(S), PDZ Domain 1): 5 (A450 nm of 4 more than 2× repeated)

Compound: CC[C@H](C)[C@H](NC(=O)[C@H](CCCCN)NC(=O)[C@@H](NC(=O)[C@H](CO)NC(=O)[C@@H]1CCCN1C(=O)[C@H](Cc1ccccc1)NC(=O)[C@@H](NC(=O)[C@@H](NC(=O)[C@H](CCCNC(=N)N)NC(=O)[C@H](CCC(=O)O)NC(=O)[C@H](CC(C)C)NC(=O)[C@H](CC(C)C)NC(=O)[C@H](CC(C)C)NC(=O)[C@@H](NC(=O)CNC(=O)[C@@H](NC(=O)CCCC[C@@H]1SC[C@@H]2NC(=O)N[C@@H]21)C(C)C)[C@@H](C)O)C(C)C)[C@@H](C)CC)C(C)C)C(=O)N[C@@H](C)C(=O)N[C@H](C(=O)N[C@@H](CC(C)C)C(=O)N[C@H](C(=O)O)C(C)C)[C@@H](C)O [Adenovirus E4 Type9]
Classification ([3]; PDZ MUPP-1, PDZ Domain 10, PL peptide 10 uM): 1 (A450 nm 0-1)
Classification ([3]; PDZ MUPP-1, PDZ Domain 11, Protein Optimal Conc 5): 5 (A450 nm of 4 more than 2× repeated)
Classification ([4]; PDZ PSD95, PDZ Domain 1, 2, 3, PL peptide 10 uM): 5 (A450 nm of 4 more than 2× repeated)
Classification ([4]; PDZ PSD95, PDZ Domain 1, Protein Optimal Conc 5): 4 (A450 nm 3-4)
Classification ([6]; PDZ PTPL-1, PDZ Domain 2, Protein Optimal Conc 5): 3 (A450 nm 2-3)
Classification ([6]; PDZ PTPL-1, PDZ Domain 4, PL peptide 10 uM): 4 (A450 nm 3-4)
Classification ([2]; PDZ KIAA1634, PDZ Domain 1, PL peptide 10 uM): 5 (A450 nm of 4 more than 2× repeated)
Classification ([2]; PDZ KIAA1634, PDZ Domain 2, Protein Optimal Conc 5): 5 (A450 nm of 4 more than 2× repeated)
Classification ([2]; PDZ KIAA1634, PDZ Domain 4, Protein Optimal Conc 5): 4 (A450 nm 3-4)
Classification ([5]; PDZ KIAA0807(S), PDZ Domain 1, Protein Optimal Conc 5): 3 (A450 nm 2-3)
Classification ([5]; PDZ KIAA807 (domain not given), PL peptide 10 uM): 4 (A450 nm 3-4)
Classification ([7]; PDZ Domain 8, PL peptide 10 uM): 2 (A450 nm 1-2)

Classification ([1]; PDZ KIAA0147, PDZ Domain 1): 1 (A450 nm 0-1)
Classification ([2]; PDZ KIAA1634, PDZ Domain 5): 1 (A450 nm 0-1)
Classification ([7]; PDZ Domain 3): 1 (A450 nm 0-1)
Compound: LASKSAEEGKQIPDSLSTDL (Biotin-LASKSAEEGKQIPDSLSTDL) [Dock2]
